Data from patent US20200223839A1, “FLUORO-CONTAINING COMPOUNDS, USE AND PREPARATION THEREOF” (JIANGSU YINGKEBEITA YIYAOKEJI CO. LTD, priority 2017, published 2020).

Assays:
Format in all cases: cell-based
T-47D = experiment: Cytotoxicity assay by the CTG method, T-47D; conditions: Homo sapiens, T47D, Breast cancer, 72 h
Experimental: (§1) The corresponding cells were harvested from flask into cell culture medium and the cell number were counted. The cells were diluted with culture medium to the desired density and 40 μL of cell suspension was added into each well of 384-well cell culture plate as designated. The plates were covered with lid and placed in room temperature for 30 minutes without shaking and then were transferred plates into 37° C. 5% CO2 incubator overnight for cell attachment.
(§2) Compound preparation and treatment: Test compounds were received or dissolved at 30 mM stock solution and control compound Staurosporine was stored as 10 mM and 1 mM concentration. 45 uL of stock solution was transferred to a 384 pp-plate. 3 fold, 10-point dilution were performed via transferring 15 uL compound into 30 μL DMSO by using TECAN (EVO200) liquid handler. The plates were spun at room temperature at 1,000 RPM for 1 minute and shaken at a plate shaker for 2 minutes. […]
(§3) The plate from incubators were placed and equilibrated at room temperature for 15 minutes. […] 40 μL of CellTiter-Glo reagent were transferred into each well to be detected (at 1:1 to culture medium). Then the plates were placed at room temperature for 30 min followed by reading on EnSpire.
(§4) The inhibition activity was calculated following the formula below: […]
(§5) The IC50 were calculated by fitting the Curve using Xlfit (v5.3.1.3): […]

LoVo = experiment: Cytotoxicity assay by the CTG method, LoVo; conditions: Homo sapiens, Colon cancer, 72 h
Experimental: as §1, §2, §3, §4, §5

A498 = experiment: Cytotoxicity assay by the CTG method, A498; conditions: Homo sapiens, A498, Kidney cancer, 72 h
Experimental: as §1, §2, §3, §4, §5

PC-3 = experiment: Cytotoxicity assay by the CTG method, PC-3; conditions: Homo sapiens, PC-3, Prostate cancer, 72 h
Experimental: as §1, §2, §3, §4, §5

LNCaP = experiment: Cytotoxicity assay by the CTG method, LNCaP; conditions: Homo sapiens, Prostate cancer, 72 h
Experimental: as §1, §2, §3, §4, §5

Cc1ccc(S(=O)(=O)Nc2nc3ccccc3nc2Nc2ccc3nsnc3c2)cc1F [Compound 4f, N-[3-(benzo[1,2,5]thiadiazol-5-ylamino)-quinoxalin-2-yl]-3-fluoro-4-methyl-benzenesulfonamide]
IC50 (T-47D): 5.74 µM | IC50 (LoVo): 21.7 µM | IC50 (A498): 3.68 µM | IC50 (PC-3): 6.05 µM | IC50 (LNCaP): 3.2 µM
